# Experimental data: ChEMBL document CHEMBL5465560, “Selectivity Literature for EUbOPEN Chemogenomic Library” (2024)
# Experiments:
# [1] = target: Dual specificity mitogen-activated protein kinase kinase 1 (Homo sapiens, UniProt Q02750); conditions: at 10 µM
# [2] = target: Protein polybromo-1 (Homo sapiens) (UniProt Q86U86); assay: Selectivity interaction (Bromodomain panel (DSF asssay)) EUB0000270b PBRM1
# [3] = target: Hepatocyte growth factor receptor (Homo sapiens, UniProt P08581); assay: Selectivity interaction (Kinase panel (33PanQinase(R) Activity Assay)) EUB0000877a MET
# [4] = target: T1, Serine/threonine-protein kinase D1 (Homo sapiens) (UniProt Q15139); assay: Selectivity interaction (Kinase panel (literature)) EUB0001199aCl PRKD1; conditions: at 1 µM
# T1 sequence (whole entry): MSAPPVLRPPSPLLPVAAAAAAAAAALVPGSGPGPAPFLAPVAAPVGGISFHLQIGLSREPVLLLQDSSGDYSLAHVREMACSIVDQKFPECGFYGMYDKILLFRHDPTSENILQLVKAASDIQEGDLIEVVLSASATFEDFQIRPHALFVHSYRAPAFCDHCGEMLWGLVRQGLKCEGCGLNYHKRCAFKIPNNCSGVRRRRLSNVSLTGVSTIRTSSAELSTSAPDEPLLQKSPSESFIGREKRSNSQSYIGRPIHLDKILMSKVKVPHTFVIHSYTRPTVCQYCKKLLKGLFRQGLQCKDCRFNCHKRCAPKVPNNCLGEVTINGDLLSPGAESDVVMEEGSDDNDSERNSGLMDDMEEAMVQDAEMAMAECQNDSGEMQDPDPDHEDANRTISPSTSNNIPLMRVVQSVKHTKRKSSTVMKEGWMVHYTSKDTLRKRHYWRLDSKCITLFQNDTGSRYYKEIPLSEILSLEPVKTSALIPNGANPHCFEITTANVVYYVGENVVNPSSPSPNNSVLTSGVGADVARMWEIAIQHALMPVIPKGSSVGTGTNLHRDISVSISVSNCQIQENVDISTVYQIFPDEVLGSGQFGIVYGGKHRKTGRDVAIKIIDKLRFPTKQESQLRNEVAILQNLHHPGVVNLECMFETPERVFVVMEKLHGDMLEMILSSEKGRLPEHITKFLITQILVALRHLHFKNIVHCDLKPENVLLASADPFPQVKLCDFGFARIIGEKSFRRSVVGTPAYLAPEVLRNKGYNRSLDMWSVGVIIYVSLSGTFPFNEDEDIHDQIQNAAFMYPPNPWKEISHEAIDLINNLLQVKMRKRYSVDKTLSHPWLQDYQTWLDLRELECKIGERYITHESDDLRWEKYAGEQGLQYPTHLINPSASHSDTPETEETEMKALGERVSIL
# [5] = target: Ribosomal protein S6 kinase alpha-2 (Homo sapiens) (UniProt Q15349); assay: Selectivity interaction (KinomeScan (DiscoverX)) EUB0000045b RPS6KA2
# [6] = target: Serine/threonine-protein kinase 38 (Homo sapiens) (UniProt Q15208); assay: Selectivity interaction (KinomeScan (DiscoverX)) EUB0000045b STK38
# [7] = target: Calcium/calmodulin-dependent protein kinase kinase 2 (Homo sapiens) (UniProt Q96RR4); assay: Selectivity interaction (KinomeScan (DiscoverX)) EUB0000607a CAMKK2; conditions: at 10 µM
# [8] = target: Proto-oncogene tyrosine-protein kinase ROS (Homo sapiens) (UniProt P08922); assay: Selectivity interaction (KinomeScan (DiscoverX)) EUB0000666a ROS1; conditions: at 10 µM
# [9] = target: T2, Serine/threonine-protein kinase TAO2 (Homo sapiens) (UniProt Q9UL54); assay: Selectivity interaction (KinomeScan (DiscoverX)) EUB0000666a TAOK2; conditions: at 10 µM
# T2 sequence (whole entry): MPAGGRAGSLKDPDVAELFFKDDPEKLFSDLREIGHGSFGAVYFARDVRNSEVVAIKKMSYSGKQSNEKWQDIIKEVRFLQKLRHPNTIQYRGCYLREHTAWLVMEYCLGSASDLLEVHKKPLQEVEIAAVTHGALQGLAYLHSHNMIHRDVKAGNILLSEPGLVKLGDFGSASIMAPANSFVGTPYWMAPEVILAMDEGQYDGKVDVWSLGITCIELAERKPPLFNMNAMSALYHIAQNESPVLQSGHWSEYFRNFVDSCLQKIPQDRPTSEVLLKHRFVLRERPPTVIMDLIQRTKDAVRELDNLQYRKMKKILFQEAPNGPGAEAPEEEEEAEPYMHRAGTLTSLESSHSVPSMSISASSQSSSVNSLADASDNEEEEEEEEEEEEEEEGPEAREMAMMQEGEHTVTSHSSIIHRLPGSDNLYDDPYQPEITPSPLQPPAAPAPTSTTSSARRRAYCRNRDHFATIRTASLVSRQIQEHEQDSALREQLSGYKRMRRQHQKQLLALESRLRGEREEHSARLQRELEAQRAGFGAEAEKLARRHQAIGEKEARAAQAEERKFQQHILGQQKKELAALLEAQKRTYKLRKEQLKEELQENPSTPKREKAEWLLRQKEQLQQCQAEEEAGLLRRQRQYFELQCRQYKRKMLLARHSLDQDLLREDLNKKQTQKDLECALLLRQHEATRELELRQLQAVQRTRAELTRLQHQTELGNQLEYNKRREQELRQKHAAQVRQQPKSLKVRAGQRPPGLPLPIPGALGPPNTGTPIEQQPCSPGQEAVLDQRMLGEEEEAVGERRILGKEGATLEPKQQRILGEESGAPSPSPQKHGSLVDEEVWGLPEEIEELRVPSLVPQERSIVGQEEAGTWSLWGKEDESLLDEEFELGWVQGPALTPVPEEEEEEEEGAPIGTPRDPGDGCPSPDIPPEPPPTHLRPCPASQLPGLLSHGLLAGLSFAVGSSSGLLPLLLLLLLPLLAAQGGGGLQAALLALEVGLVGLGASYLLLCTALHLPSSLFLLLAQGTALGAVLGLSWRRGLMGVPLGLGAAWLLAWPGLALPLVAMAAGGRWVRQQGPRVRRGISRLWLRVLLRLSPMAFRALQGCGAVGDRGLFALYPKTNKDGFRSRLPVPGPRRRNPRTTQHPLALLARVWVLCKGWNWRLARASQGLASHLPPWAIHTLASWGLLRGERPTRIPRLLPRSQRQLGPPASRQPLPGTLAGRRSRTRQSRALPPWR
# Sequence of Ribosomal protein S6 kinase alpha-2 (Homo sapiens) (Q15349 whole entry): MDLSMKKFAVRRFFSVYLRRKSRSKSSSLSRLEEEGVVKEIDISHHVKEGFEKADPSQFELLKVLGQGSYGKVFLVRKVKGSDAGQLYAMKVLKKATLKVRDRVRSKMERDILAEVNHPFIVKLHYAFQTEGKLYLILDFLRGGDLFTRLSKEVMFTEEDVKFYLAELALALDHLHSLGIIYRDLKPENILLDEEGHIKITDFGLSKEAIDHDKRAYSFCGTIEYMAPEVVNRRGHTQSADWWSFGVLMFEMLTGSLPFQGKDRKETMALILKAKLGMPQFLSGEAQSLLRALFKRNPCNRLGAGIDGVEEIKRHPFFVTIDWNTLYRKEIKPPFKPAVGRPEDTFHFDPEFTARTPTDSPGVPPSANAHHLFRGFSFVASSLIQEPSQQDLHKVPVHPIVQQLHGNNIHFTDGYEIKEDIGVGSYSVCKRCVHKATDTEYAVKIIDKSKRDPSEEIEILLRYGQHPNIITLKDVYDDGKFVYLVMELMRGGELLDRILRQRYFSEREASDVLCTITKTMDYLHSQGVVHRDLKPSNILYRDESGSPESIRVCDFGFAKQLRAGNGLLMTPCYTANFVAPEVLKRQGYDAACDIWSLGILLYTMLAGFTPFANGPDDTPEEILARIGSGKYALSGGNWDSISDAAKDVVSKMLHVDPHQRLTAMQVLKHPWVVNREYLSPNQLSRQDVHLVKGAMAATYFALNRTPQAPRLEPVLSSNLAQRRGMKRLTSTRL
# Sequence of Serine/threonine-protein kinase 38 (Homo sapiens) (Q15208 2-465 limits assumed): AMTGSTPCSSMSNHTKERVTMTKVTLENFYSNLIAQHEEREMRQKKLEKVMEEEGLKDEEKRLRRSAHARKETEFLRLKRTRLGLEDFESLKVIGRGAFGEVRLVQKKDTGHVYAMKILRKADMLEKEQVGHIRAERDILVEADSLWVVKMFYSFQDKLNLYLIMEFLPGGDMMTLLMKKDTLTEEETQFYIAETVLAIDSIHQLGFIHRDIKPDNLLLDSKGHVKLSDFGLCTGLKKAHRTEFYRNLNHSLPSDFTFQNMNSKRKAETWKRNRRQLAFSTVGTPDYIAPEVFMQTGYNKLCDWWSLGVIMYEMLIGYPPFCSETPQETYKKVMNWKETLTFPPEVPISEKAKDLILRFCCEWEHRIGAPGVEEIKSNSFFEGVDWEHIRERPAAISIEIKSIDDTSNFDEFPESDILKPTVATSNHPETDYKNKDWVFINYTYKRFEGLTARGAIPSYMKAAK
# Sequence of Calcium/calmodulin-dependent protein kinase kinase 2 (Homo sapiens) (Q96RR4 2-588 limits assumed): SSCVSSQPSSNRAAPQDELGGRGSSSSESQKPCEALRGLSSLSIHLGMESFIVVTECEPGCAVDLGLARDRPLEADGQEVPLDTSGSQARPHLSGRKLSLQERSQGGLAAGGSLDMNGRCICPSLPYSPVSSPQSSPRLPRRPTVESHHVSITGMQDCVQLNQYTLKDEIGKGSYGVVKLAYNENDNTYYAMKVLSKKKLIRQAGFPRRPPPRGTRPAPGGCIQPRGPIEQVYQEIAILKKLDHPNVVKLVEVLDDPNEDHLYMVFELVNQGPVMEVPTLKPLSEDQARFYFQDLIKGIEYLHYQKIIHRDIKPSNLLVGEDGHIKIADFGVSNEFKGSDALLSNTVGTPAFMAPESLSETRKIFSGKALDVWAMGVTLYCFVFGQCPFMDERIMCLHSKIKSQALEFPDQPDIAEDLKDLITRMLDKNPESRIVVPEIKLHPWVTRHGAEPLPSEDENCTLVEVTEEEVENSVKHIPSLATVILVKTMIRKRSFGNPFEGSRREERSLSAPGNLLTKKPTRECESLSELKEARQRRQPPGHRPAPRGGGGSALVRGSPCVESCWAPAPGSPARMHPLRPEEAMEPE
# Sequence of Proto-oncogene tyrosine-protein kinase ROS (Homo sapiens) (P08922 whole entry): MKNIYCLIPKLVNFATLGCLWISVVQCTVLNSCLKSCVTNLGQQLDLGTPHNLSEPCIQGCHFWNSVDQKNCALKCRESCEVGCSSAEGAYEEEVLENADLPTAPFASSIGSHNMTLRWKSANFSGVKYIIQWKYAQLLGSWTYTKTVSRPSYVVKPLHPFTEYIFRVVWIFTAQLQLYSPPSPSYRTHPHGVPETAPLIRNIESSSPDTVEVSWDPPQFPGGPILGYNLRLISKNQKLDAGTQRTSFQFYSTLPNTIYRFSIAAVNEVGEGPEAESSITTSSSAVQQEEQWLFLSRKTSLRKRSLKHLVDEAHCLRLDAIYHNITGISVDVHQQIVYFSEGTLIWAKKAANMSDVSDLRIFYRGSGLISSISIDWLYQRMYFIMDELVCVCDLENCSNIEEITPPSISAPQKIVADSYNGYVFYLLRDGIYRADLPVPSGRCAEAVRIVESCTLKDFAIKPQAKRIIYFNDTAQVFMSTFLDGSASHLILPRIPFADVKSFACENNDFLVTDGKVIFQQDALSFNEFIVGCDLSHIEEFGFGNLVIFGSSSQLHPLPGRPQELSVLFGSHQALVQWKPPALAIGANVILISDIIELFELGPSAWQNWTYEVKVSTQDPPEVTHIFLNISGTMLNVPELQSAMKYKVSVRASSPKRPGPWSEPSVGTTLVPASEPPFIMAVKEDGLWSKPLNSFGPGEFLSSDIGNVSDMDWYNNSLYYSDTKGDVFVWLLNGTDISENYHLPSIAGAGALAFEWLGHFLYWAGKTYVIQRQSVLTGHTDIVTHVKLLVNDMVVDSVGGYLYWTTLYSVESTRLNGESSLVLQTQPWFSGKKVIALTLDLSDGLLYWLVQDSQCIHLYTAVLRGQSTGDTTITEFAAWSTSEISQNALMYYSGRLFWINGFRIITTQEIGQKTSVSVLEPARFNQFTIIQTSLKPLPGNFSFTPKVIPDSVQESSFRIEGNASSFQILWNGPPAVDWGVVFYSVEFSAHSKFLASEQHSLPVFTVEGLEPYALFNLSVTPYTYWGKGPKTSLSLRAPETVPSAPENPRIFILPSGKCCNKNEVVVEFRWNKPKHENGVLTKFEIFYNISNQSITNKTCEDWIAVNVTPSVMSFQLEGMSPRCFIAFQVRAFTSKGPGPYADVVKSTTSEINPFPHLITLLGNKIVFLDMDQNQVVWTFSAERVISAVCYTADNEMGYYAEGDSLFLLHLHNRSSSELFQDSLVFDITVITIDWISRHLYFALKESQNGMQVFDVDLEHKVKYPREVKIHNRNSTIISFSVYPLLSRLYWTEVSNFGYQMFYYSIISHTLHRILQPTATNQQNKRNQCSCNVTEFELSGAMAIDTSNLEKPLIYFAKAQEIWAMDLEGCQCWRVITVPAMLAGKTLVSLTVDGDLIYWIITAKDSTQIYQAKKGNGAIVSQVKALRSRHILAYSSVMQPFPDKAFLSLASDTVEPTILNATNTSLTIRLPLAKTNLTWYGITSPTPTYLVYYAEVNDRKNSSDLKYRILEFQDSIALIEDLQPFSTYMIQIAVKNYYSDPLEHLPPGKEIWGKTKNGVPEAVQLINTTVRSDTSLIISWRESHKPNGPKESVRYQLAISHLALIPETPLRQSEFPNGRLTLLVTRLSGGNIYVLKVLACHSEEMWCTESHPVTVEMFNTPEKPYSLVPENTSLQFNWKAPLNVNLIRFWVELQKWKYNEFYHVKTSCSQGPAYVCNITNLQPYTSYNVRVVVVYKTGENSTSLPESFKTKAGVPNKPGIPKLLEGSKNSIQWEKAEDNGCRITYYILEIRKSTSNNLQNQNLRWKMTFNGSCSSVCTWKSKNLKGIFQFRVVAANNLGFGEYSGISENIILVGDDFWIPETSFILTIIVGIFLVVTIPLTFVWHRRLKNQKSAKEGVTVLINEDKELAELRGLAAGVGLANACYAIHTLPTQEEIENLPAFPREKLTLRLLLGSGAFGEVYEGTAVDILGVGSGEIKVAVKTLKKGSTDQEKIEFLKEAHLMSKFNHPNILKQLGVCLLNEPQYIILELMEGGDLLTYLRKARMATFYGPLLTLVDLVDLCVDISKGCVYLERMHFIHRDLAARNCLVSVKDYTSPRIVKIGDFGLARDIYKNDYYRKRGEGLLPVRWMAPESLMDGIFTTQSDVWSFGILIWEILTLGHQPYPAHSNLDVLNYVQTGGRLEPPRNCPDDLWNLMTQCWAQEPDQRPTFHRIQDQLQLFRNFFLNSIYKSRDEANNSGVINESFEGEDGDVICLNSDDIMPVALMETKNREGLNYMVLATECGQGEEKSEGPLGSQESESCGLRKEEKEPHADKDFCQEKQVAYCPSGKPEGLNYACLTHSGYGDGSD
# Sequence of Dual specificity mitogen-activated protein kinase kinase 1 (Q02750 whole entry): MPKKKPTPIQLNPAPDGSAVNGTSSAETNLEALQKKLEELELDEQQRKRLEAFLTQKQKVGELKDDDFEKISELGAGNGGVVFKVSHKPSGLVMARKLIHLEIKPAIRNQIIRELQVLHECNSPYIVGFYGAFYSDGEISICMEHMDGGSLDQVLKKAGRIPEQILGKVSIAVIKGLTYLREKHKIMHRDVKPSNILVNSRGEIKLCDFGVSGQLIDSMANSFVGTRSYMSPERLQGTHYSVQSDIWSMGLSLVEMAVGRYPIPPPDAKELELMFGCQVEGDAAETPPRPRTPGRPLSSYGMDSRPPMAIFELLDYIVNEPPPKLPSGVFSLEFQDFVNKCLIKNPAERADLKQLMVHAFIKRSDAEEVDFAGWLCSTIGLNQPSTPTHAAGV
smiles,measurement,setting,value
Cc1cc([C@@H](C)Nc2ccccc2C(=O)O)c2nc(N3CCOCC3)cc(=O)n2c1 [AZD-6482],% of control,[1],89%
Cc1cc(CN)cc(C)c1-c1ncn(C)c1-c1cncn1C,dTM,[2],-2.3 K
CCC(=O)N1CC[C@H](Nc2ncnc3c2CN(c2cnc(OC)c(C(F)(F)F)c2)CC3)C1 [LENIOLISIB],IC50,[3],> 10 µM
CN1Cc2nccc(-c3cn(C)nc3-c3ccc(F)cc3)c2C1=O,% of inhibition,[4],-11%
C=CC(=O)Nc1cc(-n2c(=O)ccc3cnc4ccc(-c5ccc(NS(C)(=O)=O)cc5)cc4c32)ccc1C,% of control,[5]; at 1 µM,100%
same,% of control,[5]; at 10 µM,68%
same,% of control,[6]; at 1 µM,100%
same,% of control,[6]; at 10 µM,100%
CNC(=O)Nc1ccc(-c2nc(N3CC4CCC(C3)O4)c3cnn(C4CCC5(CC4)OCCO5)c3n2)cc1,% of control,[7],100%
O=C(NOC[C@H](O)CO)c1ccc(F)c(F)c1Nc1ccc(I)cc1F,% of control,[8],92%
same,% of control,[9],100%
